Measurements as given in PubChem BioAssay (NCI).
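The compound was tested at five concentrations on cells cultured in 96-well plates, with a 48-hour exposure period. TGI denotes the concentration required for complete inhibition of growth.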

Experiments:
Experiment in all cases: NCI anticancer screen, dose series, 48 h
[1] = test system: CCRF-CEM leukemia
[2] = test system: MDA-MB-435
[3] = test system: OVCAR-3 ovarian
[4] = test system: 786-0 renal
[5] = test system: SF-268 CNS
[6] = test system: PC-3 prostate
[7] = test system: HCT-116 colon
[8] = test system: UO-31 renal
[9] = test system: HCC-2998 colon
[10] = test system: SK-MEL-5 melanoma
[11] = test system: SNB-75 CNS
[12] = test system: NCI-H226 lung
[13] = test system: TK-10 renal
[14] = test system: MDA-MB-231 breast
[15] = test system: UACC-62 melanoma
[16] = test system: M14 melanoma
[17] = test system: COLO 205 colon
[18] = test system: HOP-62 NSCLC
[19] = test system: UACC-257 melanoma
[20] = test system: MALME-3M melanoma
[21] = test system: NCI-H460 lung
[22] = test system: HCT-15 colon
[23] = test system: HL-60(TB) leukemia
[24] = test system: HT29 colon
[25] = test system: RPMI-8226 leukemia
[26] = test system: NCI-H522 lung
[27] = test system: A498 renal
[28] = test system: K-562 leukemia
[29] = test system: A549 NSCLC
[30] = test system: EKVX NSCLC
[31] = test system: BT-549 breast
[32] = test system: MDA-N
[33] = test system: MOLT-4 leukemia
[34] = test system: SW-620 colon
[35] = test system: T-47D breast
[36] = test system: OVCAR-4 ovarian
[37] = test system: SK-MEL-28 melanoma
[38] = test system: SK-MEL-2 melanoma
[39] = test system: KM12 colon
[40] = test system: MCF7 breast
[41] = test system: ACHN renal
[42] = test system: SF-295 CNS
[43] = test system: OVCAR-5 ovarian
[44] = test system: SR leukemia
[45] = test system: SNB-19 CNS
[46] = test system: HS 578T breast
[47] = test system: U251 CNS
[48] = test system: NCI-H23 lung
[49] = test system: RXF 393 renal
[50] = test system: NCI/ADR-RES ovarian
[51] = test system: SK-OV-3 ovarian
[52] = test system: SN12C renal
[53] = test system: LOX IMVI melanoma
[54] = test system: DU-145 prostate
[55] = test system: HOP-92 NSCLC
[56] = test system: SF-539 CNS
[57] = test system: IGROV1 ovarian
[58] = test system: CAKI-1 renal
[59] = test system: OVCAR-8 ovarian

## NC(CC(O)(c1ccccc1)c1ccccc1)c1ccccc1S (stereo not drawn)
[1]
  TGI: 40.7 µM
[2]
  TGI: 28 µM
[3]
  TGI: 29.5 µM
[4]
  TGI: 29.4 µM
[5]
  TGI: 24.8 µM
[6]
  TGI: 24.2 µM
[7]
  TGI: 26.2 µM
[8]
  TGI: 23.5 µM
[9]
  TGI: 50 µM
[10]
  TGI: 25.6 µM
[11]
  TGI: 28.2 µM
[12]
  TGI: 29.8 µM
[13]
  TGI: 29.7 µM
[14]
  TGI: 33.3 µM
[15]
  TGI: 32 µM
[16]
  TGI: 29 µM
[17]
  TGI: 32 µM
[18]
  TGI: 30.2 µM
[19]
  TGI: 43.8 µM
[20]
  TGI: 54.8 µM
[21]
  TGI: 38.3 µM
[22]
  TGI: 33.6 µM
[23]
  TGI: 59.5 µM
[24]
  TGI: 37.5 µM
[25]
  TGI: 68.3 µM
[26]
  TGI: 30.3 µM
[27]
  TGI: 32.7 µM
[28]
  TGI: 37.2 µM
[29]
  TGI: 29.5 µM
[30]
  TGI: 25.1 µM
[31]
  TGI: 27.8 µM
[32]
  TGI: 30.4 µM
[33]
  TGI: 59.6 µM
[34]
  TGI: 36.4 µM
[35]
  TGI: 37.4 µM
[36]
  TGI: 29.7 µM
[37]
  TGI: 31.5 µM
[38]
  TGI: 33.2 µM
[39]
  TGI: 25.5 µM
[40]
  TGI: 29.9 µM
[41]
  TGI: 27.3 µM
[42]
  TGI: 31.4 µM
[43]
  TGI: 31.7 µM
[44]
  TGI: > 100 µM
[45]
  TGI: 32.4 µM
[46]
  TGI: 51 µM
[47]
  TGI: 28.3 µM
[48]
  TGI: 37.7 µM
[49]
  TGI: 31 µM
[50]
  TGI: 33.5 µM
[51]
  TGI: 37.6 µM
[52]
  TGI: 44.1 µM
[53]
  TGI: 30.5 µM

## CNC(=S)NNc1ncnc2c1ncn2-c1ccc(C)cc1
[1]
  TGI: > 100 µM
[2]
  TGI: > 100 µM
[3]
  TGI: > 100 µM
[4]
  TGI: > 100 µM
[5]
  TGI: > 100 µM
[6]
  TGI: > 100 µM
[7]
  TGI: > 100 µM
[8]
  TGI: > 100 µM
[10]
  TGI: > 100 µM
[54]
  TGI: > 100 µM
[12]
  TGI: > 100 µM
[13]
  TGI: > 100 µM
[14]
  TGI: > 100 µM
[55]
  TGI: > 100 µM
[56]
  TGI: > 100 µM
[15]
  TGI: > 100 µM
[57]
  TGI: > 100 µM
[16]
  TGI: > 100 µM
[17]
  TGI: > 100 µM
[18]
  TGI: > 100 µM
[19]
  TGI: > 100 µM
[20]
  TGI: > 100 µM
[21]
  TGI: > 100 µM
[22]
  TGI: > 100 µM
[23]
  TGI: > 100 µM
[24]
  TGI: > 100 µM
[25]
  TGI: > 100 µM
[26]
  TGI: > 100 µM
[27]
  TGI: > 100 µM
[28]
  TGI: > 100 µM
[29]
  TGI: > 100 µM
[30]
  TGI: > 100 µM
[31]
  TGI: > 100 µM
[32]
  TGI: > 100 µM
[33]
  TGI: > 100 µM
[58]
  TGI: > 100 µM
[34]
  TGI: > 100 µM
[35]
  TGI: > 100 µM
[36]
  TGI: > 100 µM
[37]
  TGI: > 100 µM
[38]
  TGI: > 100 µM
[39]
  TGI: > 100 µM
[42]
  TGI: > 100 µM
[59]
  TGI: > 100 µM
[43]
  TGI: > 100 µM
[44]
  TGI: > 100 µM
[45]
  TGI: > 100 µM
[46]
  TGI: > 100 µM
[47]
  TGI: > 100 µM
[48]
  TGI: > 100 µM
[49]
  TGI: > 100 µM
[50]
  TGI: > 100 µM
[51]
  TGI: > 100 µM
[52]
  TGI: > 100 µM
[53]
  TGI: > 100 µM
